Patent US4588729A, “Treating convulsions with dihydrouracil derivatives” (Kyowa Hakko Kogyo Co., Ltd., priority 1984, dated 1986)

Columns and labels:
[1] = system: male dd-strain mice; experiment: Pentetrazol-induced seizure test; format: in vivo; settings: Mus musculus, po, P.O., 120 mg/kg pentetrazol s.c., suppression of clonic seizure in at least 3 of 5 mice, read-out: MED for anticonvulsive action, Pentetrazol-induced seizure test
Method: (2) Pentetrazol-induced seizure test
Groups of mice, each consisting of 5 male dd-strain mice having a weight of 20±1 g were subcutaneously administered by 120 mg/kg of pentetrazol, and occurrence of clonic seizure was observed. Suppression of clonic seizure occurrence on at least three mice was regarded as effective, and MED was determined.

[2] = system: male dd-strain mice; experiment: Maximal electroshock seizure test; format: in vivo; settings: Mus musculus, po, 1 h, P.O., shock 60 minutes after administration, suppression of tonic extensor in at least 3 of 5 mice, read-out: MED for anticonvulsive action, Maximal electroshock seizure test
Method: (1) Maximal electroshock seizure test
Groups of mice, each consisting of 5 male dd-strain mice having a weight of 20±1 g were orally administered with some of said compounds and 60 minutes thereafter, an electric current of 2,000 V, 50 mA was passed to both eyes of the mouse for 0.2 seconds to observe occurrence of tonic extensor. Suppression of tonic extensor occurrence on at least three mice was regarded as effective, and MED (minimum effective dose) for suppressing the convulsion was determined.

[3] = Acute toxicity test; settings: mouse, in vivo, po; P.O., mice, suspension in 0.3% CMC, 7 days after administration
[4] = system: male Carworth Farm mice; experiment: Anticonvulsive action: MES (maximum electroconvulsive procedure) and subcutaneous pentylenetetrazole seizure tests, combined evaluation; format: in vivo; settings: Mus musculus, sc, dose levels 30, 100, 300 (600) mg/kg, MES and 85 mg/kg s.c. pentylenetetrazole tests, read-out: Evaluation (anticonvulsant activity class)
Method: The present test was performed in male Carworth Farm mice. All compounds were tested at least 3 dose levels (30, 100, 300 mg/kg) with a fourth dose of 600 mg/kg being performed when there was sufficient quantity available. The vehicles used to solubilize each compound were 30% aqueous polyethylene glycol solution (Compound Nos. 31 to 38, 45, 47 and 48) and 0.9% saline (Compound Nos. 44 and 46). The following two tests were performed. MES (Maximum electroconvulsive procedure) Maximal electroshock seizures were elicited with a 60 cycle alternating current of 50 mA intensity (5-7 times that necessary to elicit minimal electroshock seizures) delivered for 0.2 sec via corneal electrodes. A drop of 0.9% saline was instilled in the eye prior to application of the electrodes in order to prevent the death of the animal. Abolition of the hind limb tonic extension component of the seizure was defined as protection and results were expressed as: [formula] First, 85 mg/kg of pentylenetetrazole (produces seizures in greater than 95% of mice) was administered as a 0.5% solution subcutaneously in the posterior midline. […] Failure to observe even a threshold seizure (a single episode of clonic spasms of at least 5 sec duration) was defined as protection and the results were expressed as: [formula] (2) Evaluation method All results were classified into one of the following three evaluation standard: .circle.1 Anticonvulsant activity at 100 mg/kg or less .circle.2 Anticonvulsant activity at doses greater than 100 mg/kg, or anticonvulsant activity at 100 mg/kg not reinforced by similar activity at 300 mg/kg .circle.3 No anticonvulsant activity at doses up to and including 300 mg/kg

Row | SMILES | minimal effective dose [1] [mg/kg] | minimal effective dose [2] [mg/kg] | LD50 at 168 h [3] [mg/kg] | minimal effective dose [4] [mg/kg]
1 | CN1C(=O)CCN(c2ccc(Cl)cc2)C1=O [Compound 3, 1-(4-chlorophenyl)-3-methyl-dihydrouracil] | 200 | 75 | > 300 | –
2 | CN1C(=O)CCN(c2cccc(C(F)(F)F)c2)C1=O [Compound 7, 3-methyl-1-(3-trifluoromethylphenyl)-dihydrouracil] | 100 | 100 | > 1000 | –
3 | Cc1cc(Cl)ccc1N1CCC(=O)N(C)C1=O [Compound 9, 1-(2-methyl-4-chlorophenyl)-3-methyl-dihydrouracil] | 200 | 150 | > 300 | –
4 | CN1CCC(=O)N(c2cc(Cl)ccc2Cl)C1=O [Compound 24, 3-(2,5-dichlorophenyl)-1-methyl-dihydrouracil] | 100 | 100 | > 300 | –
5 | CN1CCC(=O)N(c2ccccc2Cl)C1=O [Compound 29, 3-(2-chlorophenyl)-1-methyl-dihydrouracil] | 150 | 150 | > 300 | –
6 | CN1C(=O)CCN(c2ccc(Cl)cc2Cl)C1=O [Compound 31, 1-(2,4-dichlorophenyl)-3-methyl-dihydrouracil] | 100 | 100 | > 300 | ≤ 100
7 | O=C1CCN(c2ccc(Cl)cc2)C(=O)N1 [Compound 32, 1-(4-chlorophenyl)-dihydrouracil] | – | – | – | > 100
8 | CN1C(=O)CCN(c2ccc(C(F)(F)F)cc2)C1=O [Compound 33, 3-methyl-1-(4-trifluoromethylphenyl)-dihydrouracil] | 300 | 100 | > 300 | ≤ 100
9 | CN1CCC(=O)N(c2cccc(Cl)c2Cl)C1=O [Compound 34, 3-(2,3-dichlorophenyl)-1-methyl-dihydrouracil] | 300 | 150 | > 300 | ≤ 100
10 | CN1CCC(=O)N(c2ccccc2C(F)(F)F)C1=O [Compound 35, 1-methyl-3-(2-trifluoromethylphenyl)-dihydrouracil] | – | – | – | > 100
11 | CN1CCC(=O)N(c2ccc(Cl)cc2Cl)C1=O [Compound 36, 3-(2,4-dichlorophenyl)-1-methyl-dihydrouracil] | 200 | 100 | > 300 | ≤ 100
12 | Cc1cccc(Cl)c1N1C(=O)CCN(C)C1=O [Compound 37, 3-(2-chloro-6-methylphenyl)-1-methyl-dihydrouracil] | – | – | – | > 100
13 | CN1CCC(=O)N(c2ccccc2F)C1=O [Compound 38, 3-(2-fluorophenyl)-1-methyl-dihydrouracil] | – | – | – | > 100
14 | CN1C(=O)CCN(c2ccc(N)cc2)C1=O.Cl [Compound 44, 1-(4-aminophenyl)-3-methyl-dihydrouracil hydrochloride] | – | – | – | ≤ 100
15 | CN1CCC(=O)N(c2ccccc2[N+](=O)[O-])C1=O [Compound 45, 1-methyl-3-(2-nitrophenyl)-dihydrouracil] | – | – | – | > 100
16 | CN1CCC(=O)N(c2ccccc2N)C1=O.Cl [Compound 46, 3-(2-aminophenyl)-1-methyl-dihydrouracil hydrochloride] | – | – | – | > 100
17 | CN1CCC(=O)N(c2cccc3ccccc23)C1=O [Compound 47, 1-methyl-3-α-naphthyl-dihydrouracil] | 200 | 100 | > 300 | ≤ 100
18 | CCOC(=O)c1ccccc1N1C(=O)CCN(C)C1=O [Compound 48, 3-(2-ethoxycarbonylphenyl)-1-methyl-dihydrouracil] | – | – | – | ≤ 100
